Measured values published in the supplement of paper PMC10307832.

Legend:
Experiment in all cases: relative viability (nuclei count vs DMSO), 5 days (fraction); higher = more cells survive
FH535 + Bortezomib = compound: CC1=C(C=CC(=C1)[N+](=O)[O-])NS(=O)(=O)C2=C(C=CC(=C2)Cl)Cl [FH535] + CC(C)C[C@H](NC(=O)[C@H](Cc1ccccc1)NC(=O)c1cnccn1)B(O)O [Bortezomib] (partner 0.002 µM)
How it was run: (§1)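 Relative viability was taken as the ratio of nuclei in treated wells to nuclei in vehicle wells. Lung cancer cell lines in 1536-well plates received compounds by pin tool one day after seeding, either one drug alone or a fixed anchor-drug dose plus five library-drug doses (not always all listed) in √10 steps. Nuclei were counted on 4× images after 5 days of treatment, and values are medians of duplicate plates.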

FH535 + Pemetrexed = compound: CC1=C(C=CC(=C1)[N+](=O)[O-])NS(=O)(=O)C2=C(C=CC(=C2)Cl)Cl [FH535] + Nc1nc2[nH]cc(CCc3ccc(C(=O)N[C@@H](CCC(=O)O)C(=O)O)cc3)c2c(=O)[nH]1 [Pemetrexed] (partner 0.2 µM)
How it was run: as §1

FH535 + Palbociclib = compound: CC1=C(C=CC(=C1)[N+](=O)[O-])NS(=O)(=O)C2=C(C=CC(=C2)Cl)Cl [FH535] + CC(=O)c1c(C)c2cnc(Nc3ccc(N4CCNCC4)cn3)nc2n(C2CCCC2)c1=O [Palbociclib] (partner 0.5 µM)
How it was run: as §1

FH535 + Foretinib = compound: CC1=C(C=CC(=C1)[N+](=O)[O-])NS(=O)(=O)C2=C(C=CC(=C2)Cl)Cl [FH535] + COc1cc2c(Oc3ccc(NC(=O)C4(C(=O)Nc5ccc(F)cc5)CC4)cc3F)ccnc2cc1OCCCN1CCOCC1 [Foretinib] (partner 0.25 µM)
How it was run: as §1

FH535 + Decitabine = compound: CC1=C(C=CC(=C1)[N+](=O)[O-])NS(=O)(=O)C2=C(C=CC(=C2)Cl)Cl [FH535] + Nc1ncn([C@H]2C[C@H](O)[C@@H](CO)O2)c(=O)n1 [Decitabine] (partner 2 µM)
How it was run: as §1

Cell Line	relative viability (FH535 + Bortezomib; first compound 0.04 µM)	relative viability (FH535 + Bortezomib; first compound 0.1265 µM)	relative viability (FH535 + Bortezomib; first compound 0.4 µM)	relative viability (FH535 + Bortezomib; first compound 1.265 µM)	relative viability (FH535 + Pemetrexed; first compound 0.04 µM)	relative viability (FH535 + Pemetrexed; first compound 0.1265 µM)	relative viability (FH535 + Pemetrexed; first compound 0.4 µM)	relative viability (FH535 + Pemetrexed; first compound 1.265 µM)	relative viability (FH535 + Palbociclib; first compound 0.04 µM)	relative viability (FH535 + Palbociclib; first compound 0.1265 µM)	relative viability (FH535 + Palbociclib; first compound 0.4 µM)	relative viability (FH535 + Palbociclib; first compound 1.265 µM)	relative viability (FH535 + Foretinib; first compound 0.04 µM)	relative viability (FH535 + Foretinib; first compound 0.1265 µM)	relative viability (FH535 + Foretinib; first compound 0.4 µM)	relative viability (FH535 + Foretinib; first compound 1.265 µM)	relative viability (FH535 + Decitabine; first compound 0.04 µM)	relative viability (FH535 + Decitabine; first compound 0.1265 µM)	relative viability (FH535 + Decitabine; first compound 0.4 µM)	relative viability (FH535 + Decitabine; first compound 1.265 µM)
NCI-H2023	0.816	0.995	1.03	0.726	0.194	0.219	0.249	0.21	0.383	0.369	0.404	0.331	0.876	0.995	0.699	0.743	0.218	0.223	0.236	0.213
NCI-H2085	1.14	0.917	0.977	0.819	0.926	1.02	0.804	0.677	0.507	0.45	0.448	0.365	1.01	0.869	0.89	0.59	0.542	0.512	0.572	0.431
NCI-H2087	0.7	0.57	0.719	0.528	0.656	0.694	0.663	0.624	0.23	0.176	0.21	0.158	1.05	1.07	0.916	0.766	0.26	0.225	0.194	0.18
NCI-H2126	1.07	1.1	0.986	0.879	0.639	0.659	0.662	0.536	0.352	0.329	0.363	0.322	0.955	1.31	1.06	0.601	0.59	0.582	0.574	0.415
NCI-H2347	0.843	1	1.02	0.627	0.523	0.405	0.43	0.41	0.456	0.342	0.416	0.397	0.792	0.865	1.03	0.701	0.594	0.678	0.614	0.572
NCI-H2405	0.987	0.916	0.906	0.509	0.977	1.01	0.769	0.565	0.5	0.504	0.492	0.354	1.01	1.07	0.967	0.761	0.688	0.75	0.689	0.571
NCI-H3122	0.979	0.976	0.989	0.919	0.199	0.191	0.188	0.189	0.169	0.218	0.195	0.187	0.888	0.901	0.924	0.931	0.338	0.393	0.46	0.413
PC-3 [JPC-3]	0.846	0.848	0.741	0.713	1.1	1.11	0.745	0.652	0.494	0.548	0.529	0.548	1	1	0.879	0.582	0.865	0.805	0.756	0.74
PC-14	0.938	0.885	0.815	0.759	0.12	0.137	0.13	0.123	0.512	0.6	0.593	0.548	1.03	1.06	0.982	1.02	0.218	0.231	0.242	0.223
RERF-LC-KJ	1.11	1.11	1.11	0.788	0.466	0.491	0.469	0.435	0.992	1.05	0.957	0.846	0.927	0.895	0.869	0.787	0.645	0.707	0.55	0.467
SK-LU-1	0.85	1.19	1.04	0.926	1.01	1.01	1.04	0.865	0.412	0.406	0.373	0.334	0.834	0.805	0.822	0.662	0.63	0.517	0.626	0.44
SW 1573	0.957	1.12	1.07	0.862	0.768	0.745	0.902	0.755	0.389	0.428	0.384	0.298	0.784	0.944	1.01	0.89	0.464	0.515	0.52	0.411
UMC-11	0.545	0.478	0.48	0.54	0.653	0.799	0.788	0.763	0.346	0.361	0.311	0.325	0.967	1.13	1.03	0.88	0.609	0.529	0.594	0.576
